According to the supplement of paper PMC10307832:

How the values were obtained:
Assay in all cases: relative viability (nuclei count vs DMSO), 5 days (fraction); higher = more cells survive
Nelarabine + Navitoclax = compound: COc1nc(N)nc2c1ncn2[C@@H]1O[C@H](CO)[C@@H](O)[C@@H]1O [Nelarabine] + CC1(C)CCC(c2ccc(Cl)cc2)=C(CN2CCN(c3ccc(C(=O)NS(=O)(=O)c4ccc(N[C@H](CCN5CCOCC5)CSc5ccccc5)c(S(=O)(=O)C(F)(F)F)c4)cc3)CC2)C1 [Navitoclax] (partner 0.5 µM)
How it was run: (§1)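 After 5 days of treatment, lung cancer cells in 1536-well plates were fixed and stained in a single step (final 0.05% Triton X-100, 1% formaldehyde, 1 ug/ml Hoechst) and their nuclei counted on 4× images. Treatment had been applied by pin tool the day after seeding as one drug alone or as a fixed anchor-drug dose with five library-drug doses (not always all listed) in √10 steps. Relative viability is the nuclei count of treated wells divided by that of vehicle wells, and values are medians of duplicate plates.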

Adavosertib + Phenformin = compound: C=CCn1c(=O)c2cnc(Nc3ccc(N4CCN(C)CC4)cc3)nc2n1-c1cccc(C(C)(C)O)n1 [Adavosertib] + N=C(N)NC(=N)NCCc1ccccc1 [Phenformin] (partner 250 µM)
How it was run: as §1

Adavosertib + Trametinib = compound: C=CCn1c(=O)c2cnc(Nc3ccc(N4CCN(C)CC4)cc3)nc2n1-c1cccc(C(C)(C)O)n1 [Adavosertib] + CC(=O)Nc1cccc(-n2c(=O)n(C3CC3)c(=O)c3c(Nc4ccc(I)cc4F)n(C)c(=O)c(C)c32)c1 [Trametinib] (partner 0.02 µM)
How it was run: as §1

Adavosertib + Decitabine = compound: C=CCn1c(=O)c2cnc(Nc3ccc(N4CCN(C)CC4)cc3)nc2n1-c1cccc(C(C)(C)O)n1 [Adavosertib] + Nc1ncn([C@H]2C[C@H](O)[C@@H](CO)O2)c(=O)n1 [Decitabine] (partner 2 µM)
How it was run: as §1

Cell Line	relative viability (Nelarabine + Navitoclax; first compound 0.01 µM)	relative viability (Nelarabine + Navitoclax; first compound 0.03162 µM)	relative viability (Nelarabine + Navitoclax; first compound 0.1 µM)	relative viability (Nelarabine + Navitoclax; first compound 0.3162 µM)	relative viability (Nelarabine + Navitoclax; first compound 1 µM)	relative viability (Adavosertib + Phenformin; first compound 0.01 µM)	relative viability (Adavosertib + Phenformin; first compound 0.03162 µM)	relative viability (Adavosertib + Phenformin; first compound 0.1 µM)	relative viability (Adavosertib + Phenformin; first compound 0.3162 µM)	relative viability (Adavosertib + Trametinib; first compound 0.01 µM)	relative viability (Adavosertib + Trametinib; first compound 0.03162 µM)	relative viability (Adavosertib + Trametinib; first compound 0.1 µM)	relative viability (Adavosertib + Trametinib; first compound 0.3162 µM)	relative viability (Adavosertib + Decitabine; first compound 0.01 µM)	relative viability (Adavosertib + Decitabine; first compound 0.03162 µM)	relative viability (Adavosertib + Decitabine; first compound 0.1 µM)	relative viability (Adavosertib + Decitabine; first compound 0.3162 µM)
BEN	0.0794	0.0676	0.187	0.0641	0.0472	0.277	0.261	0.299	0.25	1.02	1	1.27	1.18	0.684	0.69	0.768	0.783
NCI-H322M	1.39	1.35	1.3	1.27	1.17	0.737	0.759	0.656	0.342	0.48	0.489	0.471	0.389	0.724	0.67	0.698	0.526
HCC-366	1.55	1.03	1.22	1.2	1	0.622	0.678	0.626	0.674	0.387	0.353	0.352	0.344	0.369	0.35	0.377	0.277
NCI-H596	0.986	1.13	0.959	1.04	0.994	0.662	0.909	0.754	1	0.81	0.79	0.678	0.796	1.1	1.02	1.02	0.866
EPLC-272H	1.33	1.35	1.43	0.954	1.08	0.314	0.306	0.353	0.245	0.293	0.309	0.288	0.275	0.355	0.344	0.448	0.308
NCI-H647	1.6	1.01	1.13	1.43	1.07	0.495	0.533	0.354	0.249	0.561	0.432	0.428	0.415	0.432	0.455	0.456	0.322
NCI-H2009	1.26	1.18	1.19	1.2	1.18	0.486	0.551	0.496	0.427	0.291	0.308	0.254	0.217	0.362	0.419	0.414	0.37
